Reference: patent publication EP0728012B1, “NOVEL GnRH ANALOGUES WITH ANTITUMOUR EFFECTS AND PHARMACEUTICAL COMPOSITIONS THEREOF” (Lovas, Sandor, priority 1994, dated 1996)

Legend:
MDA-MB-231 xenograft = experiment: In vivo antitumour effect on MDA-MB-231 xenograft in immunosuppressed mice; parameters: species or system CBA/Ca mice
Procedure: The immunosuppression of mice was carried out by using the method of Steel et al. [Br. J. Cancer, 37, 224-230 (1978)]. Immunosuppression and xeno-transplantation
CBA-Ca female mice of about 6 weeks old were thymectomized and then, after one week, they were irradiated with 60Co (whole body irradiation; the lethal dose is 9.5 Gray). Within 24 hours 3 to 5 x 10^5 myelocytes were injected into the animals. Beneath the skin of the immunosuppressed mice 2 x 10^7 tumour cells or, in the case of later passages, […] were implanted. […] The treatment with steroid hormone was stopped by at least one week before beginning the investigation.
Recent investigations have begun on 28 animals bearing MCF-7 xenograft and on 28 animals bearing MDA-MB-231 xenograft. On animals bearing MCF-7 tumour the treatment was commenced in the 5th week following xeno-transplantation; the tumour volume was 205 to 225 mm^3. On animals bearing MDA-MB-231 tumour, the treatment was started in the 4th week after xeno-transplantation with a tumour volume of 140 to 150 mm^3. […] The control groups were daily treated with physiological saline s.c. (Each treated group consisting of 7 animals).
A more recent study was started on 28 animals bearing MDA-MB-231 xenograft. The treatment was begun in the 4th or 5th week following xenotransplantation. The tumour volume was 0.165 to 0.194 cm^3. […] (For treatment of the control group, see the preceding Examples). Each group consisted of 7 animals.

[1] = prolonged treatment for three cycles; high doses; cited from earlier work
[2] = test system: PC3 human prostate carcinoma cell line; experiment: Inhibition of colony formation (dose-survival relation, Example 18); format: cell-based; settings: 50 µM
[3] = test system: MCF-7 human mammary carcinoma cell line; experiment: as above; format: cell-based; settings: 50 µM (active substance), treated once
[4] = test system: MDA-MB-231 human mammary carcinoma cell line; experiment: as above; format: cell-based; settings: 50 µM
rat hypophysis = settings: superfusion, relative to human GnRH; cited from earlier work
Ishikawa = experiment: Inhibition of colony formation by GnRH analogues (dose-survival, Example 48); format: cell-based, human; settings: within the dose range used (1-50 µM)
Procedure: (§1) The examination gives accurate information about the cell-damaging effect of the substance tested as a function of varying doses. The treatment was carried out once; the colonies formed from the surviving cells were counted after 8 - 12 days. […] A part of the arrested cells again entered the cycle, another part of them might be destroyed (apoptosis). […] In the case of a dose-response investigation, colonies containing less than 15 cells were not counted. 300 cells were put into each Petri dishes of 3.5 cm in diameter. The treatment was once carried out 24 hours after setting, then the colonies formed were counted after 8 - 12 days. The cells were treated once after 24 hours with 1-50 µM of various GnRH analogues of Examples above or with 1 - 50 µM of GnRH-III, respectively. The percentages of inhibition obtained on MCF-7, MDA-MB-231, PC3 and Ishikawa cells, respectively, together with the dose of the active agent used are shown in Table VIII.

MDA-MB-231 = experiment: as above; format: cell-based, human; settings: 50 µM
Procedure: as §1

MCF-7 = experiment: as above; format: cell-based, human; settings: 50 µM, treated once
Procedure: as §1

PC3 = experiment: as above; format: cell-based, human; settings: within the dose range used (1-50 µM)
Procedure: as §1

[5] = MDA-MB-231 xenograft, after 9 week treatment, 100 µg daily s.c.
[6] = Table V, treatment week 2, 1x100 µg daily s.c.
[7] = Table V, treatment week 4, 1x100 µg daily s.c.
[8] = Table V, treatment week 6, 1x100 µg daily s.c.
[9] = week 0, daily s.c., 1 x 100 µg series
[10] = week 1, daily s.c., 1 x 100 µg series
[11] = week 2, daily s.c., 1 x 100 µg series
[12] = week 3, daily s.c., 1 x 100 µg series
[13] = week 4, daily s.c., 1 x 100 µg series
[14] = week 5, daily s.c., 1 x 100 µg series
[15] = week 6, daily s.c., 1 x 100 µg series
[16] = week 7, daily s.c., 1 x 100 µg series

## NCCCC[C@H](NC(=O)[C@H](Cc1c[nH]c2ccccc12)NC(=O)[C@H](CC(=O)O)NC(=O)[C@H](Cc1c[nH]cn1)NC(=O)[C@H](CO)NC(=O)[C@H](Cc1c[nH]c2ccccc12)NC(=O)[C@H](Cc1c[nH]cn1)NC(=O)[C@@H]1CCC(=O)N1)C(=O)N1CCC[C@H]1C(=O)NCC(N)=O [GnRH-III, reference compound]
MDA-MB-231 xenograft; MDA-MB-231 xenograft, 100 µg daily s.c.
  rate of tumour growth: did not inhibit
MDA-MB-231 xenograft; [5]
  Volume (cm^3) of tumours: 2.017 ± 0.585 cm^3
  Weight (g) of tumours: 1.84 ± 0.52 g
MDA-MB-231 xenograft; [6]
  Inhibition %: 14%
  Tumour volume as control (%): 86%
MDA-MB-231 xenograft; [7]
  Inhibition %: 15%
  Tumour volume as control (%): 85%
MDA-MB-231 xenograft; [8]
  Inhibition %: 15%
  Tumour volume as control (%): 85%
MDA-MB-231 xenograft; [9]
  Tumour volume (cm^3): 0.19 cm^3
  Tumour volume as control (%): 115%
MDA-MB-231 xenograft; [10]
  Tumour volume (cm^3): 0.26 cm^3
  Tumour volume as control (%): 113%
MDA-MB-231 xenograft; [11]
  Tumour volume (cm^3): 0.36 cm^3
  Tumour volume as control (%): 86%
MDA-MB-231 xenograft; [12]
  Tumour volume (cm^3): 0.47 cm^3
  Tumour volume as control (%): 85%
MDA-MB-231 xenograft; [13]
  Tumour volume (cm^3): 0.55 cm^3
  Tumour volume as control (%): 85%
MDA-MB-231 xenograft; [14]
  Tumour volume (cm^3): 0.81 cm^3
  Tumour volume as control (%): 87%
MDA-MB-231 xenograft; [15]
  Tumour volume (cm^3): 1.04 cm^3
  Tumour volume as control (%): 85%
MDA-MB-231 xenograft; [16]
  Tumour volume (cm^3): 1.28 cm^3
  Tumour volume as control (%): 101%
[1]
  ovulation of female rats: did not inhibit the ovulation
[2]
  % Inhibition of colony formation: 21%
[3]
  % Inhibition of colony formation: 65%
[4]
  % Inhibition of colony formation: 69%
Rat hypophysis
  LH-releasing effect: about thousand times weaker than that of the human GnRH
Ishikawa
  inhibition of colony formation: did not inhibit
MDA-MB-231
  % Inhibition of the colony formation: 49%
MCF-7
  % Inhibition of the colony formation: 45%
PC3
  inhibition of colony formation: 21%
